Reference: patent publication US8691818B2, “Cyclic triazo and diazo sodium channel blockers” (University Of Greenwich, priority 2008, dated 2014)
Structures can show the parent of a compound that is named as a salt.

Assays:
[1] = target: T1, DiHydroFolate Reductase (DHFR) (Rattus norvegicus, UniProt Q920D2); experiment: Inhibition of binding of [3H]methotrexate to rat liver homogenate supernatant; details: for inhibition at 125 µM: read-out: [3H]mtx binding (% inhibition @ 125 μM); for inhibition at 99 µM: read-out: [3H]mtx binding % inhibition (* 99 μM, *** uses fresh batch of supernatant), 99 μM, fresh batch of supernatant
T1 construct: from tissue; host or cells: rat liver homogenate supernatant
T1 sequence (Q920D2 1-187): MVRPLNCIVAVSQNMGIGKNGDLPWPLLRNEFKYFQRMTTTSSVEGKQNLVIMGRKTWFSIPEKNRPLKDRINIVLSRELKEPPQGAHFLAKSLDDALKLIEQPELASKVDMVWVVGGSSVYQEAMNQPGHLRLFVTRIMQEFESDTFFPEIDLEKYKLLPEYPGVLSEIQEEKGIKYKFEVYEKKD
Method: All steps were carried out at 4° (or on ice). Freshly dissected rat liver was dissected into 0.25M ice-cold Sucrose and subsequently homogenised (U-turrax) in 50 mM pH 6.0 phosphate buffer (10 ml/g tissue) containing 15 mM Dithiothreitol. The resulting homogenate was centrifuged@47,500×g for 20 min and supernatant (filtered through cotton wool to remove fatty lumps) stored @ −80° before use (Rothenberg et al).
Inhibition of the binding of [^3H]methotrexate to rat liver homogenate supernatant fractions were carried out essentially as described by Arons et al, 1975.
(§1) Data are presented as mean±sem of number of experiments indicated in brackets.

sodium channel = experiment: [14C]guanidine flux: veratrine-evoked uptake of [14C]guanidine into rat forebrain synaptosomes (primary sodium channel assay); assay type: biochemical; details: 30° for 2½ min
Method: The screening strategy is designed to select compounds with appropriate sodium channel blocking activity and low side effect liability. To this end all compounds are processed through the primary sodium channel assay (veratrine-evoked uptake of [^14C]guanidine into rat forebrain synaptosomes) and IC50 values computed from generated concentration-effect curves.
Experiments were performed using forebrain (whole brain less cerebellum/medulla) from Male Wistar rats weighing 175-250 g. All efforts were made to reduce the number of animals used and all experiments were carried out in accordance with the UK Animals (Scientific Procedures) Act, 1986 and the European Community Council Directive of 24 Nov. 1986 (86/609/EEC). Following killing of animals by stunning and decapitation, the forebrain (whole brain less cerebellum/medulla) was rapidly dissected and transferred to a weighed tube containing ice-cold 0.25M sucrose.
Synaptosomes (heavy and light mitochondrial fraction containing synaptosomes) were prepared by transferring the forebrain (of known wet weight) to a glass Potter vessel to which 9 volumes ice-cold 0.25M sucrose had been added and homogenising, using a teflon pestle, by 8 ‘up and down strokes’ of a Braun Potter S motor driven homogeniser set to 900 rpm. The resulting homogenate was centrifuged at 1036×g at 4° for 10 min and the supernatant collected. The remaining pellet was resuspended, as above, in fresh ice-cold 0.25M sucrose and the centrifugation step repeated. The supernatant fractions were pooled and centrifuged at 40,000×g (average) at 4° for 15 min and the resulting pellet resuspended in the appropriate assay buffer at a concentration of 20-25 mg wet weight per ml appropriate assay buffer.
Both assays were carried out using 14 ml polypropylene test tubes to which a range of concentrations of the compounds under test were added.
The [^14C] guanidinine flux assay was measured using the method of Pauwels P J et al (1986) but carried out@30° for 2½ min.
as §1

| SMILES | melting point | inhibition at 125 µM [1] | IC50 (sodium channel) | inhibition at 99 µM [1] |
| --- | --- | --- | --- | --- |
| Nc1nnc(-c2ccc3c(c2)OCCO3)c(N)n1 [CEN-109, 3,5-Diamino-6-(3,4-ethylenedioxyphenyl)-1,2,4-triazine] | 220 to 222 °C | 80% | > 1000 µM |  |
| COc1ccc2cc(OC)c(-c3nnc(N)nc3N)cc2c1 [CEN-143] | 274 to 276 °C | 27% | > 2000 µM |  |
| Nc1nnc(-c2ccccc2Br)c(N)n1 [CEN-68, 3,5-Diamino-6-(2-bromophenyl)-1,2,4-triazine] | 198 to 200 °C | 101% | 794 µM |  |
| Nc1nnc(-c2cccc(-c3ccccc3)c2)c(N)n1 [CEN-159, 3,5-Diamino-6-(3-phenylphenyl)-1,2,4-triazine] | 215 to 217 °C (dec.) | 97% | 44 µM |  |
| CS(=O)(=O)c1ccc(-c2nnc(N)nc2N)c(Cl)c1 [CEN-179, 3,5-Diamino-6-[2-chloro-4-(methylsulphonyl)phenyl]-1,2,4-triazine] | 286 to 288 °C | -1% | > 2000 µM |  |
| COc1ccc(-c2nnc(N)nc2N)cc1OC [CEN-115, 3,5-Diamino-6-(3,4-dimethoxyphenyl)-1,2,4-triazine] | 288 to 290 °C | 61% | > 1000 µM |  |
| COc1cc2ccccc2cc1-c1nnc(N)nc1N [CEN-139] | 252 to 254 °C | 46% | 288 µM |  |
| Nc1nnc(-c2ccsc2)c(N)n1 [CEN-64, 3,5-Diamino-6-(3-thienyl)-1,2,4-triazine] | 199 to 201 °C | 52% | > 2000 µM |  |
| Nc1nnc(-c2cccc(OC(F)(F)C(F)F)c2)c(N)n1 [CEN-108, 3,5-Diamino-6-[3-(1,1,2,2-tetrafluoroethoxy)phenyl]-1,2,4-triazine] | 199 to 200 °C | 81% | 813 µM |  |
| Nc1nnc(-c2cccc(OCc3ccc(Cl)cc3Cl)c2)c(N)n1 [CEN-144, 3,5-Diamino-6-[3-(2,4-dichlorobenzyloxyphenyl)]-1,2,4-triazine] | 164 to 166 °C | 96% | 57.5 µM |  |
| Nc1nnc(-c2cc(OCC(F)(F)F)cc(OCC(F)(F)F)c2)c(N)n1 [CEN-193, 3,5-Diamino-6-[3,5-bis(2,2,2-trifluoroethoxy)phenyl]-1,2,4-triazine] | 185 to 187 °C |  | 135 µM | 99% |
| COc1cc(OC)cc(-c2nnc(N)nc2N)c1 [CEN-192, 3,5-Diamino-6-(3,5-dimethoxyphenyl)-1,2,4-triazine] | 225 to 228 °C |  | > 2000 µM | 91% |
| Nc1nnc(-c2c(Cl)cccc2Cl)c(N)n1 [CEN-104, 3,5-Diamino-6-(2,6-dichlorophenyl)-1,2,4-triazine] | 160 to 162 °C | 23% | > 1000 µM |  |
| Nc1nnc(-c2cc(Br)c(Br)s2)c(N)n1 [CEN-122, 3,5-Diamino-6-[2-(4,5-dibromothienyl)]-1,2,4-triazine] | 318 to 320 °C | 86% | > 1000 µM |  |
| Nc1nnc(-c2cccc(Br)c2)c(N)n1 [CEN-69, 3,5-Diamino-6-(3-bromophenyl)-1,2,4-triazine] | 221 to 222 °C | 66% | 776 µM |  |
| Nc1nnc(-c2ccc(Br)s2)c(N)n1 [CEN-124, 3,5-Diamino-6-[2-(5-bromothienyl)]-1,2,4-triazine] | 265 to 268 °C | 90% | 871 µM |  |
| Nc1nnc(-c2ccc(Cl)s2)c(N)n1 [CEN-138, 3,5-Diamino-6-[2-(5-chlorothienyl)]-1,2,4-triazine] | 312 to 314 °C | 67% | > 2000 µM |  |
| Nc1nnc(C2(c3ccc(Cl)cc3)CCCC2)c(N)n1 [CEN-148, 3,5-Diamino-6-[1-(4-chlorophenyl)-1-cyclopenty]-1,2,4-triazine] | 184 to 186 °C | 38% | 20.4 µM |  |
| Nc1nnc(-c2cccc(OCc3c(Cl)cccc3Cl)c2)c(N)n1 [CEN-185, 3,5-Diamino-6-[3-(2,6-dichlorobenzyloxy)phenyl]-1,2,4-triazine] | 190 to 192 °C | 90% | 3 µM |  |
| CCOc1cc2ccccc2cc1-c1nnc(N)nc1N [CEN-141] | 212 to 214 °C | 30% | 288 µM |  |
| Nc1nnc(-c2cccc3ccccc23)c(N)n1 [CEN-72, 6-(1-Naphthyl)-1,2,4-triazine-3,5-diamine] | 194 to 196 °C | 101% | 132 µM |  |
| Nc1nnc(-c2cc(Cl)sc2Cl)c(N)n1 [CEN-71, 3,5-Diamino-6-[3-(2,5 dichlorothienyl)]-1,2,4-triazine] | 190 to 192 °C | 54% | 513 µM |  |
| COc1cc(-c2nnc(N)nc2N)cc(OC)c1OC [CEN-95, 3,5-Diamino-6-(3,4,5 trimethoxyphenyl)-1,2,4-triazine] | 309 to 311 °C | 6% | > 1000 µM |  |
| Nc1nnc(-c2ccc(OCc3ccccc3)cc2)c(N)n1 [CEN-131, 3,5-Diamino-6-(4-Benzyloxyphenyl)-1,2,4-triazine] | 205 to 207 °C | 94% | 288 µM |  |
| CC(C)(C)c1cc(-c2nnc(N)nc2N)cc(C(C)(C)C)c1 [CEN-187, 3,5-Diamino-6-(3,5-di-tert-butylphenyl)-1,2,4-triazine] | 278 to 280 °C | 99% | 447 µM |  |
| Nc1nnc(C2(c3ccc(Cl)cc3)CCCCC2)c(N)n1 [CEN-145, 3,5-Diamino-6-[1-(4-chlorophenyl)-1-cyclohexyl]-1,2,4-triazine] | 205 to 207 °C | 39% | 9.6 µM |  |
| Nc1nnc(-c2sccc2Br)c(N)n1 [CEN-125, 3,5-Diamino-6-[2-(3-bromothienyl)]-1,2,4-triazine] | 215 to 217 °C | 6% | 7590 µM |  |
| Cn1nc(C2(c3ccc(Cl)cc3)CCCC2)c(N)nc1=N (as salt: methanesulfonate) [CEN-150, 5(3)-Amino-6-{1-[1-(4-chlorophenyl)]cyclopentyl}-2,3(2,5)-dihydro-3(5)-imino-2-methyl-1,2,4-triazine methanesulfonate] | 272 to 273 °C |  |  |  |
| CCn1nc(-c2cc(C(F)(F)F)cc(Cl)c2F)c(N)nc1=N (as salt: mesylate) [CEN-203, 5(3)-Amino-6-(3-chloro-2-fluoro-5-trifluoromethyphenyl)-2,3(2,5)-dihydro-3(5)-imino-2-ethyl-1,2,4-triazine mesylate] | 277 to 279 °C |  |  |  |
| Cn1nc(-c2cccc3c2CCCC3)c(N)nc1=N (as salt: methanesulfonate) [CEN-120, 5(3)-Amino-6-[1-(5,6,7,8-tetrahydronaphthyl)]-2,3(2,5)-dihydro-3(5)-imino-2-methyl-1,2,4-triazine methanesulfonate] | 236 to 237 °C |  |  |  |
